Experimental data published in patent US12473332B2, “Modified peptides and associated methods of use” (Advanced Technologies For Novel Therapeutics, LLC, priority 2019, dated 2025).
Where no end group is shown, it is not given here.

How the values were obtained:
AKT [1] = experiment: AKT activity in cultured neurons treated with PKA inhibitor or activator (AKT phosphorylation at Thr-308 and Ser-473); type: cell-based
Description: To evaluate the significance of the AKT-PKAc interaction, kinase inhibitors were employed. […] Thus, cultured neurons were treated with the selective PKA inhibitor, H-89, and the potent PKA activator, forskolin, and AKT activity was analyzed.

glioblastoma cells = conditions: literature; read-out: IC-50 on glioblastoma cells; cited from earlier work
Neuroblastoma cells = conditions: literature; read-out: IC-50 on neuroblastoma cells; cited from earlier work
[2] = trypan blue staining, live and dead cell count; type: cell-based; conditions: 12 to 72 hours
Description: Therefore, in addition to capturing live images, cells were stained with trypan blue at different time intervals following treatment with ZaTa and counted by a light microscope using a hemocytometer.

AKT [3] = target: AKT (Homo sapiens, UniProt P31749); experiment: in vitro AKT kinase assay with Ser-9 GSK-3 GST fusion protein substrate; PKAc peptide library screen; type: biochemical; conditions: Ser-9 GSK-3 GST substrate
AKT1 = AKT1 (Homo sapiens, UniProt P31749); experiment: AKT1 in vitro kinase assay, γ-32P incorporation into Ser-21 GSK-3β substrate peptide; type: biochemical
AKT1, sequence (P31749 whole entry): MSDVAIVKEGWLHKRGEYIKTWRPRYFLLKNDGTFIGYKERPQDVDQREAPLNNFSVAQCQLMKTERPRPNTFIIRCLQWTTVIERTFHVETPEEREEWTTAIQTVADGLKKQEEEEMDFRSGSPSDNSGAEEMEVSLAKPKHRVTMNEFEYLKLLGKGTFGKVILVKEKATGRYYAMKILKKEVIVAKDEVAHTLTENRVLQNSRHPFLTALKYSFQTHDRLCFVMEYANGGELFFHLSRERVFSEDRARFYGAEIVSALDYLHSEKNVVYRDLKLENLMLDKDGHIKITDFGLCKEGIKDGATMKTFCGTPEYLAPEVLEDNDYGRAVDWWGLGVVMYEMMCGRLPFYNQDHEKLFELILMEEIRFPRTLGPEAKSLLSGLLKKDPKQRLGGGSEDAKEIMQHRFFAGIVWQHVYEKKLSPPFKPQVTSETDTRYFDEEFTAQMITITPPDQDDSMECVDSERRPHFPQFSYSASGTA

AKT (Homo sapiens, UniProt P31749), sequence (P31749 whole entry, the tested form may be a part): as the sequence (P31749 whole entry) above

Row | Molecule | number of dead cells [2] | inhibitory effect on catalytic activity of AKT (AKT [3]) | other results
1 | O=S(=O)(NCCNC/C=C/c1ccc(Br)cc1)c1cccc2cnccc12 [Peptide H-89, H-89] | – | – | activity of AKT (activation-dependent phosphorylation at Thr-308 and Ser-473) (AKT [1]): dose-dependent increase in the activity of AKT
2 | Cn1nnc2c(C(N)=O)ncn2c1=O [Temodar] | – | – | IC50 (glioblastoma cells): 421 to 1020 µM; IC50 (Neuroblastoma cells): 602 µM
3 | AKRVKGRDWTLCGTPEY [ZaTa^T8D] | a significant increase in the number of dead cells was not seen | – | –
4 | AKRVKGRTWDLCGTPEY [ZaTa^T10D] | a significant increase in the number of dead cells was not seen | – | –
5 | AKRVKGRTWTLCGRPEY [ZaTa^T14R] | a significant increase in the number of dead cells was observed | – | –
6 | AKRVKGRTWTLCGTPER [ZaTa^Y17R] | a significant increase in the number of dead cells was observed | – | –
7 | D-Q-Q-G-Y-I-Q-V-T-D-F-G-F-A-K (DQQGYIQVTDFGFAK; MISC_FEATURE - Peptide_SEQ ID NO:56) [Peptide 49] | – | significant inhibitory effects | –
8 | G-F-A-K-R-V-K-G-R-T-W-T-L (GFAKRVKGRTWTL; MISC_FEATURE - Peptide_SEQ ID NO:59) [Peptide 52] | – | – | inhibition of AKT1 catalytic activity (AKT1): not able to inhibit AKT1
9 | G-V-L-I-Y-E-M-A-A-G-Y-P-P-F-F (GVLIYEMAAGYPPFF; MISC_FEATURE - Peptide_SEQ ID NO:70) [Peptide 63] | – | significant inhibitory effects | –
10 | W-A-L-G-V-L-I-Y-E-M-A-A-G-Y (WALGVLIYEMAAGY; MISC_FEATURE - Peptide_SEQ ID NO:69) [Peptide 62] | – | significant inhibitory effects | –
11 | Y-E-M-A-A-G-Y-P-P-F-F-A (YEMAAGYPPFFA; MISC_FEATURE - Peptide_SEQ ID NO:71) [Peptide 64] | – | significant inhibitory effects | –
